Test results from PMC10249896, “AI-Assisted chemical probe discovery for the understudied Calcium-Calmodulin Dependent Kinase, PNCK” (PLOS Computational Biology, 2023).
“And” between values parts separate entries of the source, which are not always exact repeats. Equal entries are not always repeated. Where two headings read alike, the source gives them in different places.

How the values were obtained:
[1] = biological target: T1, GST-tagged PNCK recombinant protein (Homo sapiens, UniProt Q6P2M8); test: ADP-Glo Kinase Assay, biochemical PNCK inhibitor screen; details: compound 10uM, 25uM ATP, normalized to DMSO and staurosporine controls; for inhibition at 10 µM: read-out: Avg. Normalized % Inhibition, 10uM, ADP Kinase Glo
T1 construct: GST; purchased Novus NBP1-99886
Protocol: ADP-Glo Kinase Assay (V6930, Promega) was used to screen the first round of compounds against PNCK. […] Autocamtide-II (GenScript RP10271) was used as the peptide substrate. This peptide was dissolved in water and prepared immediately prior to the assay. Calcium/Calmodulin 10X (Abcam ab189137) solution was used to create a custom kinase buffer: 40mM Tris,pH 7.5; 20mM MgCl2; 0.1mg/ml BSA; 50μM DTT and Ca2+/Calmodulin solution (0.03μg/μl, Calmodulin, 1mM Tris,pH 7.3, 0.5mM CaCl2). […] A standard curve was then done to determine the amount of protein needed to generate a signal in the linear range of the ATP curve. 100ng of PNCK and 2ng of substrate was used per well in the 96-well plate format of this assay. […] Plates were read using the Clariostar Plus. Data was normalized to a DMSO and staurosporine controls.
(§1) Data analysis of ADP Kinase Glo results were carried out per the manufacturer’s instructions. Results were represented as a percent decrease in activity. Data was normalized to staurosporine (positive control) as 100% decrease and DMSO (negative control) as a 0% decrease. Data for NanoBRET was analyzed by dividing the acceptor by the donor emission and […] to obtain raw millibret units (mBU). Background was subtracted using control emission averages. Data was normalized to positive and negative controls of staurosporine and DMSO. Concentration-response curves were plotted in GraphPad Prism 8 and IC50s were extrapolated using non-linear fit with concentrations transformed to logarithmic scale. Baseline was held constant and represented the average mBU of staurosporine controls while the top was constrained to represent the average mBU of DMSO controls. Error bars on dose-response curves represent standard deviations.

[2] = biological target: T2, PNCK Nano-luciferase fusion (Homo sapiens, UniProt Q6P2M8); test: NanoBRET Target Engagement Intracellular Kinase Assay, cell-based PNCK binding screen and dose response in HEK293 cells; details: for NanoBRET binding, result in words: cell-based screen / comparison with parent hit; for IC50: 8-point concentration-response
T2 construct: host or cells: HEK293
T2 sequence (Q6P2M8 whole entry, the tested form may be a part): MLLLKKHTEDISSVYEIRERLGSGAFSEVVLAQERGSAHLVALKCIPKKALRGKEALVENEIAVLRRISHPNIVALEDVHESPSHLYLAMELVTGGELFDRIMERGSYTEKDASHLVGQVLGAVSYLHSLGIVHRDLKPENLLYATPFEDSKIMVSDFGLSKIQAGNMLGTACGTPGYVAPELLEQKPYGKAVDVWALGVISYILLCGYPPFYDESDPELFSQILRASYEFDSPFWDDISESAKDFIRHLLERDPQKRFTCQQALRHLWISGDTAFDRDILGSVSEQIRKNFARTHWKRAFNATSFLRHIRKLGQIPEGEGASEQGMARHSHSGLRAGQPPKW
Protocol: The NanoBRET Target Engagement Intracellular Kinase Assay (Promega N2520) is a cell-based binding screen which reads loss of BRET signal as a result of target binding. A PNCK Nano-luciferase fusion vector plasmid was generated custom by Promega. The K-10 tracer was used for the assay, as determined by Promega. The plasmid was maxiprepped by Genewiz for use in all future assays. HEK293 cells were seeded in a T175 flask in DMEM with 10% FBS. The following day, cells were counted to 10,000, resuspended in assay media (Optimem with no phenol red, 1% FBS). Plasmid and transfection reagent (Fugene HD, Promega E2311) were added to the mixture and cells were seeded in a white 96-well plate. After 20–24 hours, media was changed, and the assay proceeded according to protocol. K10 tracer was added at the recommended concentration of 1uM while compounds were initially screened at both 10uM and 1uM. Cells incubated with compound at 37 degrees Celsius for a maximum of 2 hours before the plate was read using Clariostar Plus. Data was normalized to Staurosporine and DMSO controls. For compounds selected for further analysis, dose response curves were generated using the same testing protocol but at 8 different concentrations: 24uM, 12uM, 6uM, 3uM, 1.5uM, .75uM 0.375uM and 0.1875uM. UM195 was tested with concentrations from 12uM to 0.09375. Similarly, compounds from the analog by catalog analysis were tested at concentrations from 24uM to 0.1875uM.
as §1

[3] = compound 1uM, HEK293, K10 tracer 1uM, normalized to staurosporine and DMSO, read-out: Avg. Normalized % Inhibition, 1uM, Nanobret
[4] = compound 10uM, HEK293, K10 tracer 1uM, normalized to staurosporine and DMSO, read-out: Avg. Normalized % Inhibition, 10uM, Nanobret

SMILES | inhibition at 1 µM [2, 3] | inhibition at 10 µM [2, 4] | also measured
O=c1nc(CSc2nnc(-c3ccccc3)c3ccccc23)[nH][nH]1 [UM_022] | 0% | 10.5% | Avg. Normalized % Inhibition, 10uM, ADP Kinase Glo [1]: Negligible
O=c1[nH]c2ccccc2n1CCCSc1nnc2c(n1)[nH]c1ccccc12 [UM_037, 1-(3-5H-[1,2, 4]triazino [5,6-b]indol-3-ylsulfanylpropyl)-2,3-dihydro-1H-1,3-benzodiazol-2-one] |  |  | Avg. Normalized % Inhibition, 10uM, ADP Kinase Glo [1]: minimal inhibitory activity; Dose-Response Curve Data (NanoBRET signal, replicates) ([2]; Concentration 1.20E-05 M, listed as UM37): 6.25 and 6.50 and 6.41; Dose-Response Curve Data (NanoBRET signal, replicates) ([2]; Concentration 1.50E-06 M, listed as UM37): 7.94 and 8.66 and 7.96; Dose-Response Curve Data (NanoBRET signal, replicates) ([2]; Concentration 1.88E-07 M, listed as UM37): 8.18 and 8.37 and 8.94; Dose-Response Curve Data (NanoBRET signal, replicates) ([2]; Concentration 2.40E-05 M, listed as UM37): 4.85 and 4.94 and 5.59; Dose-Response Curve Data (NanoBRET signal, replicates) ([2]; Concentration 3.00E-06 M, listed as UM37): 8.21 (2×) and 8.11; Dose-Response Curve Data (NanoBRET signal, replicates) ([2]; Concentration 3.75E-07 M, listed as UM37): 8.11 and 8.67 and 8.63; Dose-Response Curve Data (NanoBRET signal, replicates) ([2]; Concentration 6.00E-06 M, listed as UM37): 7.28 and 7.38 and 7.80; Dose-Response Curve Data (NanoBRET signal, replicates) ([2]; Concentration 7.50E-07 M, listed as UM37): 8.16 and 8.66 and 8.74
COc1cccc([C@@H](C)NC(=O)c2ccc(N3CC(=O)NC3=O)cc2)c1 [UM_032] | 0% | 17.4% | Avg. Normalized % Inhibition, 10uM, ADP Kinase Glo [1]: 69.5%; inhibition at 10 µM [1]: > 50%
O=C(O)Cc1cc(C2CCN(C(=O)Cc3n[nH]c4ccccc34)CC2)[nH]n1 [UM_039] | 2.17% | 6.89% | Avg. Normalized % Inhibition, 10uM, ADP Kinase Glo [1]: 91% and 91.1687%; NanoBRET binding, result in words [2]: negligible activity
CC(C)(CC(=O)Nc1ccc(Oc2ccnc3ccccc23)c(F)c1)C(=O)O [UM_026] | 0% | 0% | Avg. Normalized % Inhibition, 10uM, ADP Kinase Glo [1]: 76.56%
Cc1ccc(F)c(S(=O)(=O)Nc2ccc(-c3nn(C)cc3C(=O)O)cc2)c1 [UM_023] | 2.86% | 17.6% | inhibition at 10 µM [1]: 38.2%
CN([C@@H](Cc1ccc(OS(=O)(=O)c2cccc3cnccc23)cc1)C(=O)N1CCN(c2ccccc2)CC1)S(=O)(=O)c1cccc2cnccc12 [KN-62, reference compound] |  |  | inhibition at 10 µM [1]: 100%; inhibition at 1 µM ([2]; HEK293, read-out: Avg. Normalized % Inhibition, 1uM, Nanobret): 31.2%; inhibition at 10 µM ([2]; HEK293, read-out: Avg. Normalized % Inhibition, 10uM, Nanobret): 81.5%
O=C(O)Cc1cc(C2CCN(C(=O)c3ccc(C(F)(F)F)nc3O)CC2)[nH]n1 [UM_031] | 13.3% | 14.6% | inhibition at 10 µM [1]: 7.65%
O=C(O)c1n[nH]c2c1CN(C(=O)c1ccc(N3CCOCC3)cc1)CC2 [UM_030] | 0% | 11.3% | Avg. Normalized % Inhibition, 10uM, ADP Kinase Glo [1]: Negligible
COc1cc(OC)c(Nc2ncnc3sc(C(=O)O)c(C)c23)cc1Cl [UM_028] | 3.45% | 16.7% | Avg. Normalized % Inhibition, 10uM, ADP Kinase Glo [1]: Negligible
COc1ccc(Cl)c(S(=O)(=O)Nc2ccc(OCC(=O)O)cc2)c1 [UM_038] | 0% | 18.9% | Avg. Normalized % Inhibition, 10uM, ADP Kinase Glo [1]: 68.8%; inhibition at 10 µM [1]: > 50%
Cc1c(C(=O)O)sc2ncnc(NCc3nncn3CCc3ccccc3)c12 [UM_033] | 8.63% | 13.5% | inhibition at 10 µM [1]: 50.8%
O=C(O)Cc1ccc(NS(=O)(=O)c2cccc(Cl)c2Cl)cc1 [UM_024] | 0% | 0% | inhibition at 10 µM [1]: 48.6%
O=C1CCCc2c1cnc1nc(N3CCCCC3)nc(O)c21 [UM_232] | 1.49% | 10.9% | 
Cc1nc2c(c(=O)[nH]1)CCN(Cc1cc3ccccc3n(C)c1=O)CC2 [UM_231] | 25.9% | 46.3% | 
Cc1nc2c3ccccc3nc(SCCCn3c(=O)[nH]c4ccccc43)n2n1 [UM_277] | 37.1% | 68.6% | IC50 ([2]; HEK293): 16.1 µM
O=c1[nH]c(CSc2ccccc2)nc2ccc(Cl)cc12 [UM_279] | 5.1% | 23.4% | NanoBRET binding, result in words [2]: did not demonstrate significantly improved binding

SMILES | inhibition at 1 µM [2, 3] | inhibition at 10 µM [2, 4] | also measured
Cc1cc(C)n2nc(SCc3cc(=O)n4cc(Br)ccc4n3)nc2n1 [UM_201] | 3.26% | 30.8% | 
Cc1cc(NC(=O)[C@@H]2CCO[C@H]2c2nccn2C)nnc1C [UM_221] | 0% | 14.7% | 
Cc1cc(C)n2nc(SCc3nc4ccccc4s3)nc2n1 [UM_218] | 16.7% | 61.2% | 
O=C(O)c1cccc(NS(=O)(=O)/C=C/c2ccc(Cl)cc2)c1 [UM_235] | 4.02% | 10.3% | 
CN(CC(=O)NC(C)(C)C)Cn1nc2c3c(cccc31)C(=O)c1ccccc1-2 [UM_224] | 18% | 33.3% | 
CC1CCc2c(sc(NC(=O)CSc3ncnc4[nH]cnc34)c2C(N)=O)C1 (stereo not shown) [UM_251] | 63.2% | 91.8% | IC50 ([2]; HEK293): 2.53 µM; Dose-Response Curve Data (NanoBRET signal, replicates) ([2]; Concentration 1.20E-05 M): 4.13 and 4.23 and 4.54 and 4.39; Dose-Response Curve Data (NanoBRET signal, replicates) ([2]; Concentration 1.50E-06 M): 6.59 and 7.07 and 6.74 and 7.03; Dose-Response Curve Data (NanoBRET signal, replicates) ([2]; Concentration 1.88E-07 M): 7.33 and 7.01 and 6.90 and 7.62; Dose-Response Curve Data (NanoBRET signal, replicates) ([2]; Concentration 2.40E-05 M): 4.23 and 3.92 and 4.54 and 4.39; Dose-Response Curve Data (NanoBRET signal, replicates) ([2]; Concentration 3.00E-06 M): 6.43 and 6.10 and 6.50 and 6.24; Dose-Response Curve Data (NanoBRET signal, replicates) ([2]; Concentration 3.75E-07 M): 7.22 and 7.21 and 7.00 and 7.10; Dose-Response Curve Data (NanoBRET signal, replicates) ([2]; Concentration 6.00E-06 M): 4.64 and 5.22 and 4.89 and 5.32; Dose-Response Curve Data (NanoBRET signal, replicates) ([2]; Concentration 7.50E-07 M): 7.22 and 6.99 and 7.34 and 6.94; NanoBRET binding, result in words [2]: improving from the IC50 of UM_228 by one order of magnitude
Clc1nc(CN2CCCCC2)nc2sc3c(c12)CCC3 [UM_220] | 1.68% | 27.1% | 
O=c1[nH]c2ccccc2n2c(SCCCn3c(=O)[nH]c4ccccc43)nnc12 [UM_273] | 29% | 45.5% | 
CCn1c(SCCCn2c(=O)[nH]c3ccccc32)n[nH]c1=O [UM_274] | 34.2% | 71.8% | IC50 ([2]; HEK293): 10.3 µM
O=c1[nH]c(-c2ccc(-n3cccn3)nc2)nc2sc3ccccc3c12 [UM_208] | 5.94% | 87.8% | 
O=C(CSc1ncccn1)c1ccc(O)c(O)c1 [UM_243] |  |  | cell permeability ([2]; stated on testing in NanoBRET assay): not cell permeable
O=c1[nH]c(CSc2nc3ccccc3o2)nc2ccc(Cl)cc12 [UM_280] | 33.4% | 74.7% | IC50 ([2]; HEK293): 14.9 µM; NanoBRET binding, result in words [2]: did not demonstrate significantly improved binding
Cn1c(=O)n(C(N)=O)c(=O)c2c1nc1n2CCCN1c1ccc(F)cc1 [UM_223] | 17% | 44.6% | 
NC(=O)Cn1cnc2cc(-c3ccc(Cl)cc3)sc2c1=O [UM_219] | 0.98% | 31.1% | 
O=c1[nH]c(CSc2ncccn2)nc2ccc(Cl)cc12 [UM_278] | 10.9% | 23.6% | NanoBRET binding, result in words [2]: did not demonstrate significantly improved binding
CC1CCc2c(sc(NC(=O)c3ccc([N+](=O)[O-])s3)c2C(N)=O)C1 (stereo not shown) [UM_250] | 0% | 0% | 
